Test results reported in PMC12707362, “Targeting Aurora Kinases as Essential Cell‐Cycle Regulators to Deliver Multi‐Stage Antimalarials Against Plasmodium Falciparum” (Angewandte Chemie (International Ed. in English), 2025).
Read-outs that look alike come from different tables or passages of the source.

Columns and labels:
[1] = tested on: immature (stage II/III) gametocytes, P. falciparum 3D7elo1-pfs16-CBG99; experiment: Luciferase reporter assay, immature gametocytes; format: cell-based, Plasmodium falciparum; details: 48 h; for inhibition at 5 µM: Plasmodium falciparum, read-out: Pf Early stage gametocyte %inhibition @ 5 µM
Description: (§1) P. falciparum drug sensitive NF54 (PfNF54) and drug-resistant Dd2 (PfDd2, chloroquine, pyrimethamine and mefloquine resistant) strains were cultured in vitro in human O^+/A^+ erythrocytes (5% hematocrit) in complete medium at 2–5% parasitemia, 37 °C, shaking at 60 rpm under hypoxic conditions (90% N2, 5% O2 and 5% CO2). Immature and mature gametocytes were produced from P. falciparum 3D7elo1-pfs16-CBG99 (kind gift from Pietro Alano, ISS, Italy) ^[1] as described^[2,3] by simultaneously applying nutrient starvation and decreasing hematocrit to induce >97% ring-stage ABS parasites (0.5% parasitemia, 6% hematocrit). Gametocytogenesis was followed with daily media changes (including glucose) and ABS parasites removed with 50 mM N-acetylglucosamine (day 1–4 for stage II/III; days 3–7 for stage IV/V).
(§2) All inhibitors were dissolved in dimethyl sulfoxide (DMSO). Antiplasmodium activity of selected anti-cancer inhibitors was determined on P. falciparum NF54 and Dd2 strains, measuring SYBR Green I fluorescence (485 nm excitation, 538 nm emission) as an indicator of proliferation^[4]. Ring-stage ABS parasites (1% parasitemia, 1% hematocrit) were treated with compounds for 96 h at 37 °C with chloroquine disulphate (0.5 μM) as positive drug control. The activity of the inhibitors was tested against immature (>95% stage II/III) and late-stage (>90% stage IV/V) gametocytes using a luciferase reporter assay on 3D7elo1-pfs16-CBG99 ^[1]. […] Luciferase activity was determined using a non-lysing D-luciferin substrate (1 mM in 0.1 M citrate buffer, pH 5.5, 100 μL) and bioluminescence was detected with a GloMax® - Multi Detection System with Instinct® software.

[2] = tested on: late-stage (stage IV/V) gametocytes, P. falciparum 3D7elo1-pfs16-CBG99; experiment: Luciferase reporter assay, late-stage gametocytes; format: cell-based; details: Plasmodium falciparum, 48 h, read-out: Pf Late stage gametocyte %inhibition @ 5 µM
Description: as §1, §2

[3] = Cytotoxicity counter-screening (MTT), HepG2; details: human, HepG2 CC50, 48 h, MTT
Description: (§3) HepG2 and CHO cells were maintained at 37 °C, under a humidified atmosphere of 5% CO2, in DMEM high glucose media (Gibco) supplemented with 10% heat-inactivated FBS and 1% (v/v) Penicillin-Streptomycin antibiotics. […] The supernatant was discarded, and the cell pellet was resuspended in 1 mL DMEM media for cell counting by Trypan Blue. To determine the toxicity, cells were resuspended and seeded at a concentration of 1x10^4 cells/well in a 96-well plate and incubated for 24 h^[9,10]. Cells were treated in duplicate with a 10-fold serial dilution starting at 100 ug/mL of inhibitor in new media. After 48 h incubation, the viable cells were measured using the MTT tetrazolium reduction assay, where sterile 25 µL of a 5 mg/mL MTT was added to each well and incubated for 4 h before the […] formazan crystals were dissolved with 100 µL DMSO (Merck) per well. The absorbance, a measure of intracellular reduction of MTT, was measured at 540 nm (Multiskan GO). Emetine (50 µM) was included as a positive drug control, and the background was subtracted from all data before being normalised to the untreated^[9,10].

[4] = Cytotoxicity counter-screening (MTT), CHO; details: Chinese hamster
Description: as §3

recombinant PfPKG = target: T1, recombinant PfPKG (Plasmodium falciparum, UniProt Q8I719); experiment: ADP-Glo kinase assay, PfPKG; format: biochemical
T1 construct: Full-length PfPKG (PF3D7_1436600); His tag (N); made in house; host or cells: E. coli (first-named host, read as 'respectively')
T1 sequence (Q8I719 whole entry): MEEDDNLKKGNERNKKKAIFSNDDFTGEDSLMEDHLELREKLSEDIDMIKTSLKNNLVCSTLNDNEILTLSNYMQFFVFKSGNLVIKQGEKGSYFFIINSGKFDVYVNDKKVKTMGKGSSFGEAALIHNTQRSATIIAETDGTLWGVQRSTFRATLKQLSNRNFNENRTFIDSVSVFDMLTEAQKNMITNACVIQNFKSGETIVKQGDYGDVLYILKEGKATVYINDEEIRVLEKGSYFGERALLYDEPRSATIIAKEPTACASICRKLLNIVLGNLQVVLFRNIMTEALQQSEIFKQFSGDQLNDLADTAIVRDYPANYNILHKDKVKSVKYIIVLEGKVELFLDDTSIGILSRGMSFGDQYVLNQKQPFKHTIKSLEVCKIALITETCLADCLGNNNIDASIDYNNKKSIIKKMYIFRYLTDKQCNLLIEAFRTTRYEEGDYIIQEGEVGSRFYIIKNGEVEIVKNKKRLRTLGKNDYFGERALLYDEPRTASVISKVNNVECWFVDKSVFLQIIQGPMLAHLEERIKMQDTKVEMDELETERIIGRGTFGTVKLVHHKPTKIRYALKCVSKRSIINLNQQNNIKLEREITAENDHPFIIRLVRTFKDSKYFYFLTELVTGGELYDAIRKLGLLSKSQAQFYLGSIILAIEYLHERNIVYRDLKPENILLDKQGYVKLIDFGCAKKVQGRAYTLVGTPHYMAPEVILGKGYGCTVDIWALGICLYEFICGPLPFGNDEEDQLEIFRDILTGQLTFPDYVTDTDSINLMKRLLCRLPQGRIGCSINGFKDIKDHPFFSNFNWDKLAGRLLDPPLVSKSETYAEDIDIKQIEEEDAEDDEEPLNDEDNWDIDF
Excerpt: (§4) Full-length PfPKG (PF3D7_1436600)^[19] and PvPI4Kβ (PVX_098050)^[20] recombinant proteins were expressed in E. coli and baculovirus-insect cell expression systems. The kinase domain of PfCLK3 (PF3D7_1114700, Gln317 to Ser694) was expressed in E. coli Rosetta™(DE3)pLysS cells (kind gift from Rafael M. Couñago, CQMED, University of Campinas). Briefly, the N-terminal His-tagged kinases were purified using immobilized metal affinity chromatography, followed by anion exchange chromatography in the case of PfPKG, and size exclusion chromatography. Dose-response kinase inhibition assays were carried out using the ADP-Glo kinase assay kit^[21], with 1 nM PfPKG, 10 μM ATP, 20 μM […]-NH2, 1% (v/v) DMSO and inhibitor in PKG assay buffer (25 mM HEPES pH 7.4, 0.1 mg/mL BSA, 0.01% (v/v) Triton-X 100, 20 mM MgCl2, 2 mM DTT, 10 μM cGMP); or 6 nM PvPI4Kβ, 10 μM ATP, 0.1 mg/ml L-alpha-phosphatidylinositol, 1% (v/v) DMSO and inhibitor in PI4Kβ assay buffer (25 mM HEPES pH 7.4, 100 mM NaCl, 3 mM MgCl2, 1 mM DTT, 0.025 mg/ml BSA, 0.2% (v/v) Triton-X-100); or 15 nM PfCLK3, 10 μM ATP, 20 μM myelin basic protein, 1% (v/v) DMSO and inhibitor in assay buffer (50 mM HEPES pH 7.4, 0.1 mg/mL BSA, 0.01% (v/v) Triton-X 100, 20 mM MgCl2, 2 mM DTT). […] Mean IC50 values were calculated from two independent experiments, each with technical duplicates.

[5] = target: T2, recombinant PfCLK3 kinase domain (Plasmodium falciparum, UniProt Q8IIL5); experiment: ADP-Glo kinase assay, PfCLK3; format: biochemical
T2 sequence (Q8IIL5 317-694): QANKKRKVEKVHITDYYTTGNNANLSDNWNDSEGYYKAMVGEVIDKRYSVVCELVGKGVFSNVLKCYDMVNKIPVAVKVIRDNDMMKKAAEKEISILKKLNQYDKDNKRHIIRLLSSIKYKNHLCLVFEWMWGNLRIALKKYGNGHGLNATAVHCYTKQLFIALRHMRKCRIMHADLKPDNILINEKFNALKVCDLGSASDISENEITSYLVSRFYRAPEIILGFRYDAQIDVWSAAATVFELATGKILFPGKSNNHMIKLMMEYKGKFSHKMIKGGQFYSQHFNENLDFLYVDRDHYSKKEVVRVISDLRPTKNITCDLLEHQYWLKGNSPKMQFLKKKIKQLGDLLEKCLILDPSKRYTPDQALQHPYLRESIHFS
Excerpt: as §4

recombinant PvPI4Kβ = recombinant PvPI4Kβ (Plasmodium vivax, UniProt A5KB26); experiment: ADP-Glo kinase assay, PvPI4Kβ; format: biochemical
Sequence of recombinant PvPI4Kβ (A5KB26 1-1525): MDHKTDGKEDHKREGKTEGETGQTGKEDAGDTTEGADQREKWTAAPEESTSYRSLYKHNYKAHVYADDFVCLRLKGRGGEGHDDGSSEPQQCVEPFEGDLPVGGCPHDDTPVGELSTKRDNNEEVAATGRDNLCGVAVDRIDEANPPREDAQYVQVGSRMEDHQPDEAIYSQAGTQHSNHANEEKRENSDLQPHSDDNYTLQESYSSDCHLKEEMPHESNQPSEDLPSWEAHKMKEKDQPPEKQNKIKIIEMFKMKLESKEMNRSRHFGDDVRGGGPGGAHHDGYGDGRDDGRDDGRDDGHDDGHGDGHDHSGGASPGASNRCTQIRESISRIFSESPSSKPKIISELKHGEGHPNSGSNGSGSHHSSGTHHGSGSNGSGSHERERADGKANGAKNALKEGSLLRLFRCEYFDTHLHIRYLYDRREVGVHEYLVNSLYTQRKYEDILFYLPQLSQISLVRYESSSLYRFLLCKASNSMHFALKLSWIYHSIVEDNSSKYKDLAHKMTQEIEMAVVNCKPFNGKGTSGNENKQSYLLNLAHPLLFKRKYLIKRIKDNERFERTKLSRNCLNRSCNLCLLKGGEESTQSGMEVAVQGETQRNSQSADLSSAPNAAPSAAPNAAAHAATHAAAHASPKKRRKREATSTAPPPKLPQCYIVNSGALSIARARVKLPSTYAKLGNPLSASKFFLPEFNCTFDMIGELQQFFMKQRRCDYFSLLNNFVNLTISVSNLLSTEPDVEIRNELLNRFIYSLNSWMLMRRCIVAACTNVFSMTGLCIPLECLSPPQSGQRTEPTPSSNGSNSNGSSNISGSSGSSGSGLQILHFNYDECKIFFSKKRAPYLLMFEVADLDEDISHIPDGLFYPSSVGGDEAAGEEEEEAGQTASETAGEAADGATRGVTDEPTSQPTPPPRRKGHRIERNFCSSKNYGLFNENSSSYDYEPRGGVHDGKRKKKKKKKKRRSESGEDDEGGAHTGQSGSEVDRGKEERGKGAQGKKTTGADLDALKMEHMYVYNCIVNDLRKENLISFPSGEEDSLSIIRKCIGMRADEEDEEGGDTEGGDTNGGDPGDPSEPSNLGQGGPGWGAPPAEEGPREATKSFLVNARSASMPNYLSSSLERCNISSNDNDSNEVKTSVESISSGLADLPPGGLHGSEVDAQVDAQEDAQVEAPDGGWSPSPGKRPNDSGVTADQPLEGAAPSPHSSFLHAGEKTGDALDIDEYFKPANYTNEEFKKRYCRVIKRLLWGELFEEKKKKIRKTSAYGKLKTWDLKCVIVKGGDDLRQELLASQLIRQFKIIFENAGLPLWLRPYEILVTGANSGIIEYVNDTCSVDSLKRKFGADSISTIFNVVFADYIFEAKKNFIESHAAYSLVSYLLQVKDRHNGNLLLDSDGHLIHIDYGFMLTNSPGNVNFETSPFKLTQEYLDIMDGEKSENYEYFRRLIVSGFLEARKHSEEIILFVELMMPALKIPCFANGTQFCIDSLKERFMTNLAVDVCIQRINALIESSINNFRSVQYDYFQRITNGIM
Excerpt: as §4

[6] = 10 µM ATP, read-out: IC50 PfCLK3
[7] = 10 µM ATP, read-out: IC50 PvPI4Kβ

Row | Structure (SMILES) | Pf Early stage gametocyte %inhibition @ 5 µM [1] | inhibition at 5 µM [1] | inhibition at 5 µM [2] | CC50 at 48 h [3] | CC50 at 48 h [4] | IC50 (recombinant PfPKG) | IC50 [5, 6] | IC50 (recombinant PvPI4Kβ; [7]) | CC50 at 48 h ([3]; HepG2 cells) | CC50 at 48 h ([4]; CHO cells) | IC50 (recombinant PfPKG; 10 µM ATP, read-out: IC50 PfPKG) | IC50 [5] | IC50 (recombinant PvPI4Kβ)
1 | CCN1CCN(C(=O)Cc2ccc(Nc3ncc(F)c(Nc4ccc(C(=O)Nc5ccccc5Cl)cc4)n3)cc2)CC1 [AAi I, Aurora A Inhibitor I] | 73,0 ± 3,1% | ~70% | 48.7% | 5.1 µM | 3.6 µM | 1700 nM | 2.4 µM | > 10 µM |  |  |  |  | 
2 | O=C(Nc1c[nH]nc1-c1nc2ccc(CN3CCOCC3)cc2[nH]1)NC1CC1 [AT83, AT9283] |  | 53.5% | 48.9% | 12.9 ± 4.5 µM | 4.5 ± 2.1 µM | 9300 nM | 0.1 µM | > 10 µM |  |  |  |  | 
3 | CCN(CCO)CCCOc1ccc2c(Nc3cc(CC(=O)Nc4cccc(F)c4)n[nH]3)ncnc2c1 [AZD-1152, AZD-1152-HQPA] |  | 31.1% | 38.2% | > 15 µM | > 15 µM | > 10000 nM | > 10 µM | > 10 µM |  |  |  |  | 
4 | O=C(Nc1cccc(Nc2nccc(Nc3cccc(C(F)(F)F)c3)n2)c1)C1CC1 [Aki III, Aurora kinase inhibitor III] |  | 27.7% | 3.5% |  |  |  |  |  | 18.4 µM | 2.4 µM | 2700 nM | > 10 µM | > 10 µM
5 | COc1cc(N2CCC(N3CCN(C)CC3)CC2)ccc1Nc1ncc(Cl)c(Nc2ccccc2S(=O)(=O)C(C)C)n1 [TAE684, NVP-TAE684] | 65,4 ± 1,7% | ~70% | 50.8% | 8.8 µM | 2 µM | 2000 nM | > 10 µM | > 10 µM |  |  |  |  | 
6 | COc1cc2c(Nc3ccc(NC(=O)c4ccccc4)cc3)ncnc2cc1OCCCN1CCOCC1 [ZM-39, ZM-447439] |  | 32.7% | 21.5% |  |  | > 10000 nM | > 10 µM | > 10 µM | > 15 µM | > 15 µM |  |  | 
